Assay results taken from ChEMBL document CHEMBL5291721, “A preclinical secondary pharmacology resource illuminates target-adverse drug reaction associations of marketed drugs” (Nat Commun, 2023).

Legend:
B1 bradykinin receptor = target: T1, B1 bradykinin receptor (Homo sapiens, UniProt P46663)
T1 sequence (P46663 whole entry): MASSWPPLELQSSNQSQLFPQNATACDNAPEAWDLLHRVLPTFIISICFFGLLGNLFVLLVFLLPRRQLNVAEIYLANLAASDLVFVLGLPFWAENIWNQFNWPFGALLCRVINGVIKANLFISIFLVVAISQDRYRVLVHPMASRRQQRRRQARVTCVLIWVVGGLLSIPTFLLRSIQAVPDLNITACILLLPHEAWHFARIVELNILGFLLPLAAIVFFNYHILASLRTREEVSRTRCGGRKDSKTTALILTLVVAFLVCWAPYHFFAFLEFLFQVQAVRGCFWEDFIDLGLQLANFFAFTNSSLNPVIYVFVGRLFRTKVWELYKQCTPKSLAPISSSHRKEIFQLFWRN

[1] = target: Neurotensin receptor type 1 (Homo sapiens, UniProt P30989)
Sequence of Neurotensin receptor type 1 (P30989 whole entry): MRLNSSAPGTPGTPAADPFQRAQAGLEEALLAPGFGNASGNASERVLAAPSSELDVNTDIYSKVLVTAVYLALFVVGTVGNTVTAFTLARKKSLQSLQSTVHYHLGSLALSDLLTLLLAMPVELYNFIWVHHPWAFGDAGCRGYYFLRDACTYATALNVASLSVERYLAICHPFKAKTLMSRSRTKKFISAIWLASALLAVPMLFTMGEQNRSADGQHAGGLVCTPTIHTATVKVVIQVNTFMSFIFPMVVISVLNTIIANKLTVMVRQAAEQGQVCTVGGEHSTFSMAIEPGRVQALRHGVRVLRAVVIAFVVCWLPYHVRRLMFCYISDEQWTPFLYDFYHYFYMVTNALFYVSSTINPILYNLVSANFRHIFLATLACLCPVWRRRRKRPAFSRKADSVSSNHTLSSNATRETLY

Glucocorticoid receptor = target: T2, Glucocorticoid receptor (Homo sapiens, UniProt P04150)
T2 sequence (P04150 whole entry): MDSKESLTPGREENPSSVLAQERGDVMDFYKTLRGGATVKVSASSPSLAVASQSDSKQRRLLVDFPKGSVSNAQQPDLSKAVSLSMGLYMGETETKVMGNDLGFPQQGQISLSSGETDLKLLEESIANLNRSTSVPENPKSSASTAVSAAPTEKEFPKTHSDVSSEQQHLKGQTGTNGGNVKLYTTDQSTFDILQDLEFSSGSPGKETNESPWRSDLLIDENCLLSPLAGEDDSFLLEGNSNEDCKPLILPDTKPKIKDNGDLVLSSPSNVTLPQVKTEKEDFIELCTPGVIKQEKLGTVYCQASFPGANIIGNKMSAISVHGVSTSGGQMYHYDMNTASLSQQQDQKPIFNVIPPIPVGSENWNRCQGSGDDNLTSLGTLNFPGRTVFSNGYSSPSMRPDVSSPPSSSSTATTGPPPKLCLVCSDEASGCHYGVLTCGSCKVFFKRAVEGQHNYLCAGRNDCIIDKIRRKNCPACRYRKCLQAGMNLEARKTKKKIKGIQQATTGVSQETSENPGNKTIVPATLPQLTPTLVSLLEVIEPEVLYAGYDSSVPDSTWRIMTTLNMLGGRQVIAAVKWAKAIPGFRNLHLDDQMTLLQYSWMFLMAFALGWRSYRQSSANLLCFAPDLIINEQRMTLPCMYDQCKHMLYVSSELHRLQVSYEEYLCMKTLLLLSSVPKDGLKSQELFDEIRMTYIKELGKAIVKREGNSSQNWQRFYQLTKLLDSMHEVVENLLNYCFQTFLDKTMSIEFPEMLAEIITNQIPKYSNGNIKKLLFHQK

Adenosine receptor A1 = target: T3, Adenosine receptor A1 (Homo sapiens, UniProt P30542)
T3 sequence (P30542 whole entry): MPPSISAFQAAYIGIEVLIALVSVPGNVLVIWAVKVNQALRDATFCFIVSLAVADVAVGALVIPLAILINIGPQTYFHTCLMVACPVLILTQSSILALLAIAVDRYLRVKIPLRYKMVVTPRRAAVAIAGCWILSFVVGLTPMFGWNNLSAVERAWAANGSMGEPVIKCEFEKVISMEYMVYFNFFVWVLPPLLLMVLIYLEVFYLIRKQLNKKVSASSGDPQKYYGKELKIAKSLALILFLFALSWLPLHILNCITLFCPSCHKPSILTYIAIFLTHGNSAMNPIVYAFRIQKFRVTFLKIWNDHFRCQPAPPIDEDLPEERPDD

[2] = target: T4, Gamma-aminobutyric acid receptor subunit alpha-1/alpha-2/beta-2/gamma-2 (Homo sapiens, UniProt P14867+P18507+P47869+P47870); format: functional, cell-based
T4 sequence (P14867 whole entry): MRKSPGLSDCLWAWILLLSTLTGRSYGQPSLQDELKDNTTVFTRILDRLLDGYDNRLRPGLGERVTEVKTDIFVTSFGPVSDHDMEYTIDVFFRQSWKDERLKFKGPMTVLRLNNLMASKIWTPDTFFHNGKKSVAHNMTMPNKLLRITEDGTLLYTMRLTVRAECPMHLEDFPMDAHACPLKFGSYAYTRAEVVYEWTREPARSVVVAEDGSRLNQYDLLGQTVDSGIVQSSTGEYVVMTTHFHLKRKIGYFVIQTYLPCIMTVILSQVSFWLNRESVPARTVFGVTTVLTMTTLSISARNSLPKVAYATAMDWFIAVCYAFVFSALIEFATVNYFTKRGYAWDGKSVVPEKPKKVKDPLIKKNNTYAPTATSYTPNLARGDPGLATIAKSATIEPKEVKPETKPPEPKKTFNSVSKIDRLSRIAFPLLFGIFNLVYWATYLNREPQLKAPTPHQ
T4 sequence (P47870 whole entry): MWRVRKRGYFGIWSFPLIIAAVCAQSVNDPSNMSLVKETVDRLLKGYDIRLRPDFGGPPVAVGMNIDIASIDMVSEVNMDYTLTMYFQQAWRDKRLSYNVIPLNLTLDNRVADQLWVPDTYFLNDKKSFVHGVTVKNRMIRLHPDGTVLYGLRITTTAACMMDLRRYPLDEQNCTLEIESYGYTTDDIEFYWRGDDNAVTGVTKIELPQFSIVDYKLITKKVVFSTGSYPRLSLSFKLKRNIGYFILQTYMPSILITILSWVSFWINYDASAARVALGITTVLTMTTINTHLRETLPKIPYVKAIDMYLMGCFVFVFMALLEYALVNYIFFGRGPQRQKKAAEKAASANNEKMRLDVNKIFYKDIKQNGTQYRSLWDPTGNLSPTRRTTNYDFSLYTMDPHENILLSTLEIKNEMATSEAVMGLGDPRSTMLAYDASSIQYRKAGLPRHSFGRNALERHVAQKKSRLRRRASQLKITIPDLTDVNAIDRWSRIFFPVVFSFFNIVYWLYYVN
T4 sequence (P18507 whole entry): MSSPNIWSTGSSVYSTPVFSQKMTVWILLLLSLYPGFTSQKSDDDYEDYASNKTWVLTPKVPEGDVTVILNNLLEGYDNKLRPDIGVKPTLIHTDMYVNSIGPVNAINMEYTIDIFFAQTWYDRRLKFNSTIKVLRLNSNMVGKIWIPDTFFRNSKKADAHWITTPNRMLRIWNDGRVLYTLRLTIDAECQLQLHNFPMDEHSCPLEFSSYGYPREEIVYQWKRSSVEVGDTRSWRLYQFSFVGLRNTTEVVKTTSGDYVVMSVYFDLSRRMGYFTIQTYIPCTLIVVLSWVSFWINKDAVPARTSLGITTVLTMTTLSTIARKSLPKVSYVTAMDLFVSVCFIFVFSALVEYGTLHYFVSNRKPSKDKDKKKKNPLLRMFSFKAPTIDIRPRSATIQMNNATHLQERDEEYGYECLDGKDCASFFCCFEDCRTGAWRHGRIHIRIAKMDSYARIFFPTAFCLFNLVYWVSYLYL
T4 sequence (P47869 whole entry): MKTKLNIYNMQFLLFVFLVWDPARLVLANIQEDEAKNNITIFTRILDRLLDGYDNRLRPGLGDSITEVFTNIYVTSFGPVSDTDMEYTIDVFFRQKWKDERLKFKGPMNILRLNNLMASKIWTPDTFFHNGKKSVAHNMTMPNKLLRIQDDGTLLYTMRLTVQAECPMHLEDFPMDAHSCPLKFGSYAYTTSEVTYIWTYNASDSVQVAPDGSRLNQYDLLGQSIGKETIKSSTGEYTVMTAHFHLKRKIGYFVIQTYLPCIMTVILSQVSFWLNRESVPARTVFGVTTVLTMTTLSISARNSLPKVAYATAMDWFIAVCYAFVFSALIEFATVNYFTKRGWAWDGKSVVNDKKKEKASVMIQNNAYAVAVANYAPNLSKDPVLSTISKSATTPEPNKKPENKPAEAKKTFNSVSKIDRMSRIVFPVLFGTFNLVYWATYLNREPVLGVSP

[3] = target: T4, Gamma-aminobutyric acid receptor subunit alpha-1/alpha-2/beta-2/gamma-2; format: functional, cell-based; remark: listed apart in the source
D(4) dopamine receptor = target: T5, D(4) dopamine receptor (Homo sapiens, UniProt P21917)
T5 sequence (P21917 whole entry): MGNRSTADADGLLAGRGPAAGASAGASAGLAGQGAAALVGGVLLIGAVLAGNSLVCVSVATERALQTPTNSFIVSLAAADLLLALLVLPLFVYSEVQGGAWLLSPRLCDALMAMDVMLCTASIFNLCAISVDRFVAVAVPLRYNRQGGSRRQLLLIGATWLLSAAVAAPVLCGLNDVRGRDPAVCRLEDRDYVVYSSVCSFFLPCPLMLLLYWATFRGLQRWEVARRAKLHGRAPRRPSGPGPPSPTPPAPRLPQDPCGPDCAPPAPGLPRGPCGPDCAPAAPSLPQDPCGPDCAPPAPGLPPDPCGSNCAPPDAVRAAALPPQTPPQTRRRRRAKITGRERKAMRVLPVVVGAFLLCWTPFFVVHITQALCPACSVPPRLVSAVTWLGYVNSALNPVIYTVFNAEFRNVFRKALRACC

[4] = target: T6, Alpha-2A adrenergic receptor (Homo sapiens, UniProt P08913)
T6 sequence (P08913 whole entry): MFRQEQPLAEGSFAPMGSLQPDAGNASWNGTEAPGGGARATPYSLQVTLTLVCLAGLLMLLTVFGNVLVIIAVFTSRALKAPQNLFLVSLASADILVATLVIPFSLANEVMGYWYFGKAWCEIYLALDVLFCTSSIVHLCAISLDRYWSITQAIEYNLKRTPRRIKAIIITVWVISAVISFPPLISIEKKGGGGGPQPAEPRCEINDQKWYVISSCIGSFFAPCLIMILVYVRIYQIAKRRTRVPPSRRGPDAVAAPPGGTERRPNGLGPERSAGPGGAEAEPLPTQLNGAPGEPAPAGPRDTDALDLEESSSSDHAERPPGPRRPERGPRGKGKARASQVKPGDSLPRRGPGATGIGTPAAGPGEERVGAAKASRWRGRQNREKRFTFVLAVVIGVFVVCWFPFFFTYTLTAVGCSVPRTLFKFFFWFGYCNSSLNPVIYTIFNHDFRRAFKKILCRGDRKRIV

D(1A) dopamine receptor = D(1A) dopamine receptor (Homo sapiens, UniProt P21728)
Sequence of D(1A) dopamine receptor (P21728 whole entry): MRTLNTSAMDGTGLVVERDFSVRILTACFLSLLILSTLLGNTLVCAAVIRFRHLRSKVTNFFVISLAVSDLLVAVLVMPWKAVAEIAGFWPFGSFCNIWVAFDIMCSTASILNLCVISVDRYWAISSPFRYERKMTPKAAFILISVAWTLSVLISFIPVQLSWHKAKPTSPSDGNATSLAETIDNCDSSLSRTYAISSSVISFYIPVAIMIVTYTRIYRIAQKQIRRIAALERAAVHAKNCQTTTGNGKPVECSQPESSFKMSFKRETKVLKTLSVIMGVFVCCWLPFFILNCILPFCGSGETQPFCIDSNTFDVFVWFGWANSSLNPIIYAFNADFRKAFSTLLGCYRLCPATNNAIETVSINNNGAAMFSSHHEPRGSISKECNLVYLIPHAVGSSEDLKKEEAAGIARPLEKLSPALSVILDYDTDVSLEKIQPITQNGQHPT
Note: assay procedure not described here.

CC(C)N(CCC(C(N)=O)(c1ccccc1)c1ccccn1)C(C)C (stereo not drawn) [DISOPYRAMIDE]
AC50 (B1 bradykinin receptor): > 30 µM | AC50 [1]: > 30 µM

CC(N)C12CC3CC(CC(C3)C1)C2 (stereo not drawn) [RIMANTADINE]
AC50 (Glucocorticoid receptor): > 10 µM

CC(=O)Oc1cc(C(F)(F)F)ccc1C(=O)O [TRIFLUSAL]
AC50 (Adenosine receptor A1): > 30 µM

C[C@]12C=CC(=O)N[C@@H]1CC[C@@H]1[C@@H]2CC[C@]2(C)[C@@H](C(=O)Nc3cc(C(F)(F)F)ccc3C(F)(F)F)CC[C@@H]12 [DUTASTERIDE]
AC50 (Glucocorticoid receptor): > 10 µM

CC(C)c1nc(N(C)S(C)(=O)=O)nc(-c2ccc(F)cc2)c1/C=C/[C@@H](O)C[C@@H](O)CC(=O)O [ROSUVASTATIN]
AC50 [2]: > 30 µM | AC50 (Glucocorticoid receptor): > 30 µM | AC50 [3]: > 30 µM

CC(S)C(=O)NCC(=O)O (stereo not drawn) [TIOPRONIN]
AC50 [2]: > 30 µM | AC50 [3]: > 30 µM

O=C1C(CC[S+]([O-])c2ccccc2)C(=O)N(c2ccccc2)N1c1ccccc1 (stereo not drawn) [SULFINPYRAZONE]
AC50 (Glucocorticoid receptor): > 10 µM

OC[C@H]1O[C@@](CO)(O[C@H]2O[C@H](CO)[C@@H](O)[C@H](O)[C@H]2O)[C@@H](O)[C@@H]1O [SUCROSE]
AC50 [2]: > 30 µM | AC50 (Adenosine receptor A1): > 30 µM | AC50 [3]: > 30 µM

CCc1nc(C(N)=O)c(Nc2ccc(N3CCC(N4CCN(C)CC4)CC3)c(OC)c2)nc1NC1CCOCC1 [GILTERITINIB]
AC50 (Adenosine receptor A1): > 30 µM

CC(C)(O)CNc1nc(Nc2ccnc(C(F)(F)F)c2)nc(-c2cccc(C(F)(F)F)n2)n1 [ENASIDENIB]
AC50 (Adenosine receptor A1): 1.29 µM

N#Cc1ccc2c(c1)N(CCCN1CCC(O)CC1)c1ccccc1S2 [PERICIAZINE]
AC50 (Adenosine receptor A1): > 30 µM

C/C=C/C/C=C/CCC(=O)[C@H]1O[C@H]1C(N)=O [CERULENIN]
AC50 (Adenosine receptor A1): > 30 µM

CCN(CC)CCNC(=O)c1c(C)[nH]c(/C=C2\C(=O)Nc3ccc(F)cc32)c1C [SUNITINIB]
AC50 (D(4) dopamine receptor): 0.108 µM | AC50 (Glucocorticoid receptor): > 30 µM | AC50 [4]: 9.47 µM

CO[C@H]1/C=C/O[C@@]2(C)Oc3c(C)c(O)c4c(O)c(c(/C=N/N5CCN(C)CC5)c(O)c4c3C2=O)NC(=O)/C(C)=C\C=C\[C@H](C)[C@H](O)[C@@H](C)[C@@H](O)[C@@H](C)[C@H](OC(C)=O)[C@@H]1C [RIFAMPIN]
AC50 (D(4) dopamine receptor): > 10 µM | AC50 (B1 bradykinin receptor): 14.2 µM | AC50 (D(1A) dopamine receptor): > 10 µM | AC50 [1]: > 30 µM | AC50 [4]: > 10 µM

CC[C@H]1OC(=O)[C@H](C)C(=O)[C@H](C)[C@@H](O[C@@H]2O[C@H](C)C[C@H](N(C)C)[C@H]2O)[C@](C)(OC)C[C@@H](C)C(=O)[C@H](C)[C@H]2N(CCCCn3cnc(-c4cccnc4)c3)C(=O)O[C@]12C [TELITHROMYCIN]
AC50 (Adenosine receptor A1): > 30 µM

O=C1CCc2cc(OCCCCc3nnnn3C3CCCCC3)ccc2N1 [CILOSTAZOL]
AC50 (Glucocorticoid receptor): > 30 µM

C[C@H]1c2cccc(O)c2C(=O)C2=C(O)[C@]3(O)C(=O)C(C(N)=O)=C(O)[C@@H](N(C)C)[C@@H]3[C@@H](O)[C@@H]21 [DOXYCYCLINE]
AC50 (D(4) dopamine receptor): > 10 µM | AC50 (B1 bradykinin receptor): > 30 µM | AC50 (D(1A) dopamine receptor): > 10 µM | AC50 [1]: > 30 µM | AC50 [4]: > 10 µM

C#C[C@]1(O)CC[C@H]2[C@@H]3CCC4=CC(=O)CC[C@@H]4[C@H]3C(=C)C[C@@]21CC [ETONOGESTREL]
AC50 (Adenosine receptor A1): > 30 µM | AC50 [3]: > 30 µM

CN1C[C@H](C(=O)N[C@]2(C)O[C@@]3(O)[C@@H]4CCCN4C(=O)[C@H](Cc4ccccc4)N3C2=O)C=C2c3cccc4[nH]cc(c34)C[C@H]21 [ERGOTAMINE]
AC50 [2]: > 30 µM

CN1C(C(=O)Nc2ccccn2)=C(O)c2ccccc2S1(=O)=O [PIROXICAM]
AC50 (Glucocorticoid receptor): > 10 µM | AC50 (Adenosine receptor A1): > 30 µM

C[C@H](CCC(=O)O)[C@H]1CC[C@H]2[C@@H]3[C@@H](O)C[C@@H]4C[C@H](O)CC[C@]4(C)[C@H]3CC[C@]12C [URSODIOL]
AC50 [2]: > 30 µM | AC50 [3]: > 30 µM

CN(C)CCC[C@@]1(c2ccc(F)cc2)OCc2cc(C#N)ccc21 [ESCITALOPRAM]
AC50 [2]: > 30 µM | AC50 (Glucocorticoid receptor): > 30 µM | AC50 [3]: > 30 µM

C[C@@H](NCCCc1cccc(C(F)(F)F)c1)c1cccc2ccccc12
AC50 [2]: > 30 µM | AC50 (Glucocorticoid receptor): > 30 µM | AC50 [3]: > 30 µM

CC(=O)O[C@]1(C(C)=O)CC[C@H]2[C@@H]3C=C(C)C4=CC(=O)CC[C@@H]4[C@H]3CC[C@@]21C [NOMEGESTROL ACETATE]
AC50 (Glucocorticoid receptor): 0.067 µM | AC50 (Adenosine receptor A1): > 30 µM

CC(C(=O)O)c1ccc2c(c1)[nH]c1ccc(Cl)cc12 (stereo not drawn) [CARPROFEN]
AC50 (Glucocorticoid receptor): > 30 µM

CC[C@@]1(O)C(=O)OCc2c1cc1n(c2=O)Cc2cc3c([N+](=O)[O-])cccc3nc2-1 [RUBITECAN]
AC50 (Adenosine receptor A1): > 30 µM

OC[C@@H](O)[C@@H](O)[C@H](O)[C@@H](O)CO [SORBITOL]
AC50 (Adenosine receptor A1): > 30 µM

COc1cc2nccc(Oc3ccc(NC(=O)C4(C(=O)Nc5ccc(F)cc5)CC4)cc3)c2cc1OC [CABOZANTINIB]
AC50 [2]: > 30 µM | AC50 [3]: > 30 µM

FC(F)(F)c1ccc(CNc2ccc(Cc3c[nH]c4ncc(Cl)cc34)cn2)cn1 [PEXIDARTINIB]
AC50 (Adenosine receptor A1): 27.7 µM

CN(C)CC[C@@H](c1ccc(Cl)cc1)c1ccccn1 [DEXCHLORPHENIRAMINE]
AC50 (Glucocorticoid receptor): > 30 µM

CN(CC1(C)CCCO1)S(=O)(=O)c1ccc(Cl)c(S(N)(=O)=O)c1 (stereo not drawn) [MEFRUSIDE]
AC50 [2]: > 30 µM | AC50 (Adenosine receptor A1): > 30 µM | AC50 [3]: > 30 µM

COc1ccc(CC2c3cc(OC)c(OC)cc3CC[N+]2(C)CCC(=O)OCCCCCOC(=O)CC[N+]2(C)CCc3cc(OC)c(OC)cc3C2Cc2ccc(OC)c(OC)c2)cc1OC (stereo not drawn)
AC50 (Glucocorticoid receptor): > 30 µM | AC50 [4]: > 30 µM

CCOC(=O)c1c(C)cc2c(CO)n[nH]c(=O)c2c1C [OXAGRELATE]
AC50 (Adenosine receptor A1): 25.9 µM

CCN1CCN(Cc2ccc(Nc3ncc(F)c(-c4cc(F)c5nc(C)n(C(C)C)c5c4)n3)nc2)CC1 [ABEMACICLIB]
AC50 [2]: > 30 µM | AC50 [3]: > 30 µM

COc1ccccc1Oc1c(NS(=O)(=O)c2ccc(C(C)(C)C)cc2)nc(-c2ncccn2)nc1OCCO [BOSENTAN]
AC50 (B1 bradykinin receptor): > 30 µM | AC50 (Glucocorticoid receptor): > 30 µM | AC50 (D(1A) dopamine receptor): > 10 µM | AC50 [1]: > 30 µM | AC50 [4]: > 10 µM

O=C(O)CO [GLYCOLIC ACID]
AC50 (Adenosine receptor A1): > 30 µM

O=C1CN(/N=C/c2ccc(-c3ccc([N+](=O)[O-])cc3)o2)C(O)=N1 [DANTROLENE]
AC50 (Glucocorticoid receptor): > 10 µM

C[C@@H](Oc1cc(-c2cnn(C3CCNCC3)c2)cnc1N)c1c(Cl)ccc(F)c1Cl [CRIZOTINIB]
AC50 [2]: > 30 µM | AC50 (D(1A) dopamine receptor): > 10 µM | AC50 [3]: 17 µM
